Each structure is given as a SMILES string.

7 molecules from US8883827B2, “Azole derivatives as WTN pathway inhibitors” (Oslo University Hospital HF, priority 2009, dated 2014) can be followed below.

Common to all, as to assay type: cell-based
The subject of assay [1] is canonical Wnt signaling. Put plainly: IC50 in STF/REN HEK293 cells, 50% Wnt3a-CM. As to conditions: Homo sapiens; STF/REN HEK293, 50% Wnt3a-CM, 24 h. Here is the method: IC50 values were calculated using STF/REN HEK293 cells prepared essentially according to Example 22. Briefly, HEK293 cells (80,000 cells per well) were seeded in 48-well plates coated with poly-L lysine. 24 hours after seeding, the cells were incubated for an additional 24 hours with various compound concentrations in 50% Wnt3a-CM. After compound exposure, the cells were lysed and the firefly luciferase and Renilla activities were measured on a 20/20n Luminometer (Turner BioSystems) as described in the Dual-Glo™ Luciferase Assay System Technical Manual (Promega).
(§1) XLfit (idbs) was used to determine the IC50 and GI50 values in inhibition experiments. The data were fit to the following formulae:
IC50: Langmuir Binding Isotherm: fit=((A+(B*x))+(((C−B)*(1−exp((−1*D)*x)))/D)) res=(y−fit)

Assay [2] relates to canonical Wnt signaling. Put plainly: ST-Luc (SuperTOPFlash) Luciferase assay in HEK293 cells, 30% Wnt3a-CM. The following applies: Homo sapiens, HEK293; 10 μM compound, 30% Wnt3a-CM, 24 h; relative to DMSO control. As to the method: Inhibition of Wnt signaling by compound No. 1 was quantified in vitro using a Luciferase assay in HEK293 cells transiently transfected with SuperTOPFlash plasmid (ST-Luc) (Veeman M T et al., Curr. Biol. 13: 680-685, 2003) at concentrations from 0.1-10 μM. HEK293 cells were purchased from ATCC (American Type Culture Collection) and maintained according to suppliers recommendations.
Transfection was performed using 80000 HEK293 cells seeded in 48-well plates coated with poly-L lysine. After 24 hours, 0.25 μg total plasmid DNA (0.23 μg SuperTOPFlash+0.02 μg pRL-TK (Renilla)—Promega) and 0.75 μl FuGENE6 (Roche) was combined in a total volume in 25 μl Opti-MEM® (Invitrogen) as described by the manufacturer (Roche). The transfection mixture was added to the plated cells and media were changed after 24 hours.
The Luciferase assay was performed by incubating transfected cells for 24 hours with various concentrations of compound No. 1 in 30% Wnt3a-CM (Wnt3a containing conditioned medium from L Wnt3a cells was harvested as described by ATCC). All treated reporter cells were finally lysed and the firefly luciferase and Renilla activities were measured on a 20/20n Luminometer (Turner BioSystems) as described in the Dual-Glo™ Luciferase Assay System Technical Manual (Promega).
HEK293 cells were transfected, grown and assayed as described in Example 22. 24 hours after seeding, the cells were incubated for an additional 24 hours with 10 μM concentrations of compounds in 30% Wnt3a-CM.
The percent activities shown in Table 3 are calculated relative to DMSO as a control. Some values shown are averages of multiple measurements. Compound XAV939 (Novartis; Huang et al., Nature (2009), 461, pp. 614-20) which is used as a positive control, has an activity of 7%.

Assay [3] concerns SW480 cells. The assay can be described thus: Growth inhibition (GI50) MTS assay. The following applies: Homo sapiens, 72 h. Here is the method: Growth inhibition curves were prepared using SW480 cells, prepared essentially according to Example 23. SW480 cells (3000 cells per well) were seeded on 96 well plates (eight replicates per treatment). 24 hours later and daily thereafter, cell culture media (including 10% FBS) was mixed with various compound concentrations or with 0.1% DMSO vehicle and then added to the wells. Sixteen wells of seeded control cells, defining incubation time zero (to =24 hour after cell seeding), were incubated with […] substrate in 100 μl of phenol-free D-MEM (Invitrogen) for 2 hours, as described in the CellTiter 96® AQueous Non-Radioactive Cell Proliferation Assay protocol (MTS, Promega). The A490 was recorded. The treatment samples were likewise measured after 72 hours. The following formula was used to determine the single well relative A490 sample values: ((Sample A490−Average A490t0)*100)/(Average A490t720.1% DMSO control−Average A490t0)
as §1
GI50: Eadie-Hofstee Model: fit=(A+((B*x)/((C*(D+1))+x))) inv=(((y−A)*(C*(D+1)))/((A+B)−y)) res=(y−fit)
In general terms: Formazan colour is commonly taken as a measure of viable cells.

Usually IC50 stands for the concentration at which inhibition is half-maximal. A low value points to greater potency in that assay. In general, GI50 refers to the concentration at which growth is held to half of that of the control. Low values mean more potent growth inhibition, high ones less potent growth inhibition. In the case of `COc1ccc(-n2c(SCC(C)(C)c3nc(-c4ccc(C)cc4)no3)nnc2-c2ccncc2)cc1` [Compound 18], it took 5.9 µM to reach half-maximal inhibition in assay [1] (IC50). The molecule also had an activity at 10 µM in assay [2] of 32.3%. The same molecule gave a 50% growth inhibitory concentration (GI50) in assay [3] of over 25 µM.

In assay [1], `COc1ccc(-n2c(NCc3nc(-c4ccc(C)cc4)no3)nnc2-c2ccncc2)cc1` [Compound 19] displayed an IC50 of 8.8 µM. The activity at 10 µM in assay [2] was found to be 44.1%. The molecule further yielded a GI50 in assay [3] of over 25 µM.

In assay [1], `Cc1ccccc1-n1c(SCc2nc(-c3ccc(Cl)cc3)no2)nnc1-c1ccncc1` [Compound 41] had an IC50 of 0.47 µM. Further, the activity at 10 µM in assay [2] is 9.4%. Moreover, the GI50 in assay [3] is under 5 µM.

With `Cc1ccc(-c2noc(CSc3nnc(-c4ccncc4)n3-c3ccccc3F)n2)cc1` [Compound 42], in assay [1], the IC50 came to 0.4 µM. In assay [2], the activity at 10 µM came to 14.6%. Further, in assay [3], halving of growth (GI50) required 8 µM.

In assay [1], `Cc1ccc(-c2noc(CSc3nnc(-c4ccncc4)n3-c3cccc(C)c3C)n2)cc1` [Compound 44] came in with an IC50 of 0.57 µM. The molecule also returned an activity at 10 µM in assay [2] of 10.4%. Further, in assay [3], it took 22 µM to inhibit growth by half (GI50).

Molecule `Cc1ccc(-c2noc(CSc3nnc(-c4ccnc(O)c4)n3-c3ccccc3C)n2)cc1` [Compound 46] yielded an IC50 in assay [1] of 0.7 µM. The activity at 10 µM in assay [2] was found to be 13.3%. In assay [3], this molecule displayed a GI50 of 9 µM.

`Cc1ccc(-c2nnc(CSc3nnc(-c4ccncc4)n3-c3ccccc3C)o2)cc1` [Compound 48] came in with an IC50 in assay [1] of 0.22 µM. This molecule also had an activity at 10 µM in assay [2] of 9.9%. It took 9 µM to inhibit growth in assay [3] by half (GI50).
